The record followed here is ChEMBL document CHEMBL4052616, “Isoniazid derivatives and their anti-tubercular activity” (Eur J Med Chem, 2017).

The test system of the test is Mycobacterium tuberculosis variant bovis. Briefly: Antimycobacterial activity against Mycobacterium bovis 8 by serial dilution method. Format: functional.

≈ marks a conversion by molar mass, not a printed value.

Regarding `NNC(=O)c1ccncc1` [ISONIAZID], the minimum inhibitory concentration (MIC) was in the range of 0.015 to 0.06 µg/mL (≈ 0.109 to 0.438 µM).
